Reference: patent US4298734A, “Diazaheterocyclopurines and triazolopyrimidines” (Mead Johnson & Company, priority 1979, dated 1981)

Columns and labels:
[1] = test system: methacholine-induced bronchospasm in the rat; test: Methacholine-induced bronchospasm (pulmonary ventilation pressure) in anesthetized rat; format: in vivo; conditions: intraduodenal; for ED50 / Methacholine Bronchospasm, ED50: 50% inhibition of bronchospasm; for Methacholine Bronchospasm, percent inhibition: dose 30 mg./kg.; for inhibition in vivo at 10 mg/kg: read-out: Methacholine Bronchospasm, percent inhibition; for inhibition in vivo at 10 mg/kg / Methacholine Bronchospasm, inactive at dose: dose 10 mg./kg.
Description: Brochodilator activity in vivo (Table XI, column 6) was estimated by determining the dose of test compound required to inhibit methacholine-induced brochospasm in the rat. […] For this test, pulmonary ventilation pressure (PVP) was the parameter measured using anesthetized animals.

[2] = test system: passive cutaneous anaphylaxis reaction (PCA) in the rat; test: Passive cutaneous anaphylaxis reaction (PCA) in the rat; format: in vivo; parameters: key to PCA, inactive at dose: I: inactive at the specified dose; conditions: for inhibition in vivo at 50 mg/kg: oral dose 50 mg./kg.; for PCA, ED50 / ED50: oral
Experimental: Antiallergy activity in terms of ability to inhibit the immediate hypersensitivity reaction was measured by means of the passive cutaneous anaphylaxis reaction (PCA) in the rat (Table XI, column 7). The animals were passively sensitized by the intradermal injection of rat reagenic antiserum at various locations on the shaved back skin and 48 hours later the test drug was administered. This was followed by challenge at a predetermined interval, usually 15 minutes, by intravenous injection of egg albumin and Evans' blue dye. The dermal reaction at the sensitized site was evaluated and scored by measuring the diameter of the spot generated at the sensitized intradermal injection site. The values reported in the table are either ED50 values for the test compound in terms of mg./kg. of body weight administered orally, or percent inhibition of the dose specified in parentheses.

[3] = Anticholinergic action mediating bronchodilator activity
[4] = test system: rats actively sensitized with egg albumin and B. pertussis vaccine; test: Allergic bronchospasm in rats actively sensitized with egg albumin; format: in vivo; conditions: rat, oral, egg albumin challenge, PVP
Experimental: Antiallergy/bronchodilator studies (Table XI, column 8) were also conducted using rats which were actively sensitized with egg albumin and B. pertussis vaccine as for preparation of the reagenic antisera in the PCA test. Fifteen days following sensitization, the animals were prepared for measurement of PVP as for the methacholine-induced bronchospasm test, and changes in PVP in response to a standardized challenge of egg albumin following treatment with test drug were measured. The values reported in the table are ED50 values in terms of mg./kg. of body weight for the test compound administered orally.

[5] = oral dose 25 mg./kg., read-out: PCA, percent inhibition
[6] = oral dose 10 mg./kg., read-out: PCA, percent inhibition
[7] = read-out: PCA, percent inhibition

O=C1c2[nH]cnc2N(CCOc2ccccc2)C2=NCCN12 [Procedure 12]
ED50 [1]: 2.3 mg/kg | inhibition in vivo at 25 mg/kg [2, 5]: 27% | anticholinergic action [3]: anticholinergic action of a type which mediates improved bronchodilator activity

S=C1c2[nH]cnc2N(Cc2ccc(Cl)cc2)C2=NCCN12 [Procedure 75]
Methacholine Bronchospasm, percent inhibition [1]: 21% | PCA, inactive at dose ([2]; oral dose 25 mg./kg.): I

CC(C)C(=O)N1C2=NCCN2C(=O)c2[nH]c(C(C)C)nc21 [Procedure 20]
inhibition in vivo at 25 mg/kg [2, 5]: 46%

O=C1c2[nH]cnc2N(Cc2ccc(F)cc2)C2=NCCN12 [Procedure 8]
inhibition in vivo at 10 mg/kg [1]: 55.5% | inhibition in vivo at 10 mg/kg [2, 6]: 29%

Cn1c(Br)nc2c1C(=O)N1CCN=C1N2Cc1ccc(Cl)cc1 [Procedure 46]
ED50 [1]: > 30 mg/kg

COc1ccc(CCN2C3=NCCN3C(=O)c3[nH]nnc32)cc1OC [Procedure 26]
inhibition in vivo at 10 mg/kg [2, 6]: 41%

CC(C)CN1C2=NC(C)CN2C(=O)c2[nH]cnc21 (centres unmarked) [Procedure 109]
ED50 [1]: 4.6 mg/kg

CC(C)CN1C2=NCCN2C(=O)c2[nH]cnc21 [Procedure 13]
inhibition in vivo at 10 mg/kg [1]: 63% | PCA, inactive at dose ([2]; oral dose 25 mg./kg.): I

Cn1cnc2c1C(=O)N1CCN=C1N2Cc1ccc(Cl)cc1 [Procedure 67]
Methacholine Bronchospasm, ED50 [1]: 8.8 mg/kg | PCA, percent inhibition ([2]; oral dose 25 mg./kg.): 26%

COc1ccccc1CN1C2=NCCN2C(=O)c2[nH]cnc21 [Procedure 9]
PCA, inactive at dose ([2]; oral dose 10 mg./kg.): I

CCCCCCCCN1C2=NCCN2C(=O)c2[nH]cnc21 [Procedure 54]
PCA, inactive at dose ([2]; oral dose 25 mg./kg.): I

O=C1c2[nH]cnc2N(Cc2ccccc2Cl)C2=NCCN12 [Procedure 6]
inhibition in vivo at 50 mg/kg [2, 7]: 25%

Cc1nc2c([nH]1)C(=O)N1CCN=C1N2CCOc1ccccc1 [Procedure 58]
ED50 [1]: 0.81 mg/kg | inhibition in vivo at 25 mg/kg [2, 5]: 29% | anticholinergic action [3]: anticholinergic action of a type which mediates improved bronchodilator activity

Cc1nc2c([nH]1)C(=O)N1CCN=C1N2Cc1ccc(Cl)cc1 [Procedure 15]
ED50 [1]: 1.79 mg/kg | inhibition in vivo at 30 mg/kg ([2]; oral dose 30 mg./kg., read-out: PCA, percent inhibition): 40%

CC(C)c1nc2c([nH]1)C(=O)N1CCN=C1N2CCOc1ccccc1 [Procedure 108]
ED50 [1]: 4 mg/kg

CC1N=C2N(Cc3ccc(Cl)cc3)c3nc[nH]c3C(=O)N2C1C (mixture of isomers) [106(mixed)]
Methacholine Bronchospasm, ED50 [1]: 3.7 mg/kg | PCA, ED50 [2]: 20.3 mg/kg | Allergic Bronchospasm, ED50 [4]: 3.51 mg/kg

Cc1nc2c(n1C)C(=O)N1CCN=C1N2Cc1ccc(Cl)cc1 [Procedure 117]
ED50 [1]: 5.7 mg/kg

Cc1nc2c([nH]1)C(=O)N1CC(C)N=C1N2Cc1ccc(Cl)cc1 (racemic) [Procedure 101]
Methacholine Bronchospasm, ED50 [1]: 1.00 mg/kg | PCA, ED50 [2]: 30.2 mg/kg | Allergic Bronchospasm, ED50 [4]: 1.2 mg/kg

O=C1c2[nH]cnc2N(Cc2ccccn2)C2=NCCN12 [Procedure 10]
inhibition in vivo at 25 mg/kg [2, 5]: 40%

O=C1c2[nH]cnc2N(CCc2ccc(Cl)cc2)C2=NCCN12 [Procedure 60]
Methacholine Bronchospasm, inactive at dose [1]: I | PCA, inactive at dose ([2]; oral dose 25 mg./kg.): I

CCCCCCCCN1C2=NCCN2C(=O)c2[nH]c(C)nc21 [Procedure 55]
inhibition in vivo at 25 mg/kg [2, 5]: 34.9%

O=C1c2[nH]cnc2N(Cc2cccc(Cl)c2)C2=NCCN12 [Procedure 5]
inhibition in vivo at 10 mg/kg [1]: 64% | inhibition in vivo at 50 mg/kg [2, 7]: 43%

COc1ccc(CCN2C3=NCCN3C(=O)c3[nH]cnc32)cc1OC [Procedure 11]
inhibition in vivo at 10 mg/kg [2, 6]: 25%

Cn1c(=O)c2[nH]cnc2n(C)c1=O [Theophylline, reference compound]
ED50 [1]: 19.2 mg/kg | ED50 [2]: 41.5 mg/kg

O=C1c2[nH]cnc2N(Cc2ccccc2)C2=NCCN12 [Procedure 23]
PCA, inactive at dose ([2]; oral dose 25 mg./kg.): I

O=C1c2[nH]nnc2N(Cc2ccc(Cl)c(Cl)c2)C2=NCCN12 [Procedure 28]
PCA, inactive at dose ([2]; oral dose 10 mg./kg.): I

O=C1c2[nH]c(Br)nc2N(Cc2ccc(Cl)cc2)C2=NCCN12 [Procedure 17]
inhibition in vivo at 25 mg/kg [2, 5]: 34%

O=C1c2[nH]cnc2N(CCOc2ccc(Cl)cc2)C2=NCCN12 [Procedure 57]
inhibition in vivo at 10 mg/kg [1]: 66% | inhibition in vivo at 25 mg/kg [2, 5]: 31.7%

O=C1c2[nH]nnc2N(Cc2ccc(Cl)cc2)C2=NCCN12 [Procedure 25]
PCA, inactive at dose ([2]; oral dose 10 mg./kg.): I

CC1CN2C(=O)c3[nH]cnc3N(Cc3ccc(Cl)cc3)C2=N1 (racemic) [Procedure 100]
Methacholine Bronchospasm, ED50 [1]: 2.1 mg/kg | PCA, ED50 [2]: 10.6 mg/kg | Allergic Bronchospasm, ED50 [4]: 1.5 mg/kg

O=C1c2[nH]nnc2N(Cc2ccc(F)cc2)C2=NCCN12 [Procedure 27]
inhibition in vivo at 10 mg/kg [1]: 30% | ED50 [2]: 17.7 mg/kg

O=C1c2[nH]cnc2N(CC2CCCCC2)C2=NCCN12 [Procedure 59]
inhibition in vivo at 10 mg/kg [1]: 45.8% | inhibition in vivo at 25 mg/kg [2, 5]: 29%

CC1CN2C(=O)c3c(ncn3C)N(Cc3ccc(Cl)cc3)C2=N1 (racemic) [Procedure 102]
Methacholine Bronchospasm, ED50 [1]: 1.1 mg/kg | PCA, ED50 [2]: 28.9 mg/kg | Allergic Bronchospasm, ED50 [4]: 3.4 mg/kg

CCc1nc2c([nH]1)C(=O)N1CCN=C1N2Cc1ccc(Cl)cc1 [Procedure 14]
inhibition in vivo at 10 mg/kg [1]: 26% | inhibition in vivo at 50 mg/kg [2, 7]: 29%

O=C1c2[nH]cnc2N(CCCc2ccccc2)C2=NCCN12 [Procedure 62]
inhibition in vivo at 10 mg/kg [1]: 22% | PCA, inactive at dose ([2]; oral dose 25 mg./kg.): I

O=c1c2[nH]cnc2n(Cc2ccc(Cl)cc2)c2nccn12 [Procedure 124]
Methacholine Bronchospasm, ED50 [1]: 8.1 mg/kg

CC1N=C2N(Cc3ccc(Cl)cc3)c3nc[nH]c3C(=O)N2C1C (stereo not drawn) [106(trans)]
Methacholine Bronchospasm, ED50 [1]: 5.0 mg/kg | PCA, ED50 [2]: 35.5 mg/kg

N=C1c2[nH]cnc2N(Cc2ccc(Cl)cc2)C2=NCCN12 [Procedure 77]
Methacholine Bronchospasm, percent inhibition [1]: 22%

O=C1c2[nH]cnc2N(Cc2ccc(Cl)c(Cl)c2)C2=NCCN12 [Procedure 7]
PCA, inactive at dose ([2]; oral dose 25 mg./kg.): I

CC(C)c1nc2c([nH]1)C(=O)N1CCN=C1N2Cc1ccccc1Cl [Procedure 16]
PCA, inactive at dose ([2]; oral dose 25 mg./kg.): I

CC(C)CN1C2=NCCN2C(=O)c2c1ncn2CCOc1ccccc1 [Procedure 39]
inhibition in vivo at 10 mg/kg [1]: 34.7% | PCA, inactive at dose ([2]; oral dose 25 mg./kg.): I

O=C1c2c(ncn2Cc2ccc(F)cc2)N(Cc2ccc(F)cc2)C2=NCCN12 [Procedure 44]
inhibition in vivo at 10 mg/kg [1]: 0% | PCA, inactive at dose ([2]; oral dose 10 mg./kg.): I

Cc1nc2c([nH]1)C(=O)N1CCN=C1N2CC(C)C [Procedure 63]
ED50 [1]: 3.3 mg/kg | ED50 [2]: 33.9 mg/kg | ED50 ([4]; Bordetella pertussis): 5.4 mg/kg

CC1N=C2N(Cc3ccc(Cl)cc3)c3nc[nH]c3C(=O)N2C1C (stereo not drawn) [106(cis)]
Methacholine Bronchospasm, ED50 [1]: 3.0 mg/kg | PCA, ED50 [2]: 28.5 mg/kg

CCCCCCCCN1C2=NCCN2C(=O)c2[nH]c(C(C)C)nc21 [Procedure 56]
inhibition in vivo at 25 mg/kg [2, 5]: 25%

CCCCn1cnc2c1C(=O)N1CCN=C1N2Cc1ccc(Cl)cc1 [Procedure 24]
inhibition in vivo at 10 mg/kg [1]: 16% | PCA, inactive at dose ([2]; oral dose 10 mg./kg.): I

O=C1c2[nH]nnc2N(CCOc2ccccc2)C2=NCCN12 [Procedure 74]
Methacholine Bronchospasm, inactive at dose [1]: I | PCA, inactive at dose ([2]; oral dose 25 mg./kg.): I
